In US20240398784A1, “C-LINKED ISOQUINOLINE AMIDES AS LRRK2 INHIBITORS, PHARMACEUTICAL COMPOSITIONS, AND USES THEREOF” (Merck Sharp & Dohme LLC, priority 2021, published 2024):

Target: LRRK2 G2019S (Homo sapiens, UniProt Q5S007, G2019S)
Assay: LRRK2 G2019S Km ATP LanthaScreen assay
Format: biochemical
Settings: not given

LRRK2 G2019S, sequence (Q5S007 whole entry G2019S): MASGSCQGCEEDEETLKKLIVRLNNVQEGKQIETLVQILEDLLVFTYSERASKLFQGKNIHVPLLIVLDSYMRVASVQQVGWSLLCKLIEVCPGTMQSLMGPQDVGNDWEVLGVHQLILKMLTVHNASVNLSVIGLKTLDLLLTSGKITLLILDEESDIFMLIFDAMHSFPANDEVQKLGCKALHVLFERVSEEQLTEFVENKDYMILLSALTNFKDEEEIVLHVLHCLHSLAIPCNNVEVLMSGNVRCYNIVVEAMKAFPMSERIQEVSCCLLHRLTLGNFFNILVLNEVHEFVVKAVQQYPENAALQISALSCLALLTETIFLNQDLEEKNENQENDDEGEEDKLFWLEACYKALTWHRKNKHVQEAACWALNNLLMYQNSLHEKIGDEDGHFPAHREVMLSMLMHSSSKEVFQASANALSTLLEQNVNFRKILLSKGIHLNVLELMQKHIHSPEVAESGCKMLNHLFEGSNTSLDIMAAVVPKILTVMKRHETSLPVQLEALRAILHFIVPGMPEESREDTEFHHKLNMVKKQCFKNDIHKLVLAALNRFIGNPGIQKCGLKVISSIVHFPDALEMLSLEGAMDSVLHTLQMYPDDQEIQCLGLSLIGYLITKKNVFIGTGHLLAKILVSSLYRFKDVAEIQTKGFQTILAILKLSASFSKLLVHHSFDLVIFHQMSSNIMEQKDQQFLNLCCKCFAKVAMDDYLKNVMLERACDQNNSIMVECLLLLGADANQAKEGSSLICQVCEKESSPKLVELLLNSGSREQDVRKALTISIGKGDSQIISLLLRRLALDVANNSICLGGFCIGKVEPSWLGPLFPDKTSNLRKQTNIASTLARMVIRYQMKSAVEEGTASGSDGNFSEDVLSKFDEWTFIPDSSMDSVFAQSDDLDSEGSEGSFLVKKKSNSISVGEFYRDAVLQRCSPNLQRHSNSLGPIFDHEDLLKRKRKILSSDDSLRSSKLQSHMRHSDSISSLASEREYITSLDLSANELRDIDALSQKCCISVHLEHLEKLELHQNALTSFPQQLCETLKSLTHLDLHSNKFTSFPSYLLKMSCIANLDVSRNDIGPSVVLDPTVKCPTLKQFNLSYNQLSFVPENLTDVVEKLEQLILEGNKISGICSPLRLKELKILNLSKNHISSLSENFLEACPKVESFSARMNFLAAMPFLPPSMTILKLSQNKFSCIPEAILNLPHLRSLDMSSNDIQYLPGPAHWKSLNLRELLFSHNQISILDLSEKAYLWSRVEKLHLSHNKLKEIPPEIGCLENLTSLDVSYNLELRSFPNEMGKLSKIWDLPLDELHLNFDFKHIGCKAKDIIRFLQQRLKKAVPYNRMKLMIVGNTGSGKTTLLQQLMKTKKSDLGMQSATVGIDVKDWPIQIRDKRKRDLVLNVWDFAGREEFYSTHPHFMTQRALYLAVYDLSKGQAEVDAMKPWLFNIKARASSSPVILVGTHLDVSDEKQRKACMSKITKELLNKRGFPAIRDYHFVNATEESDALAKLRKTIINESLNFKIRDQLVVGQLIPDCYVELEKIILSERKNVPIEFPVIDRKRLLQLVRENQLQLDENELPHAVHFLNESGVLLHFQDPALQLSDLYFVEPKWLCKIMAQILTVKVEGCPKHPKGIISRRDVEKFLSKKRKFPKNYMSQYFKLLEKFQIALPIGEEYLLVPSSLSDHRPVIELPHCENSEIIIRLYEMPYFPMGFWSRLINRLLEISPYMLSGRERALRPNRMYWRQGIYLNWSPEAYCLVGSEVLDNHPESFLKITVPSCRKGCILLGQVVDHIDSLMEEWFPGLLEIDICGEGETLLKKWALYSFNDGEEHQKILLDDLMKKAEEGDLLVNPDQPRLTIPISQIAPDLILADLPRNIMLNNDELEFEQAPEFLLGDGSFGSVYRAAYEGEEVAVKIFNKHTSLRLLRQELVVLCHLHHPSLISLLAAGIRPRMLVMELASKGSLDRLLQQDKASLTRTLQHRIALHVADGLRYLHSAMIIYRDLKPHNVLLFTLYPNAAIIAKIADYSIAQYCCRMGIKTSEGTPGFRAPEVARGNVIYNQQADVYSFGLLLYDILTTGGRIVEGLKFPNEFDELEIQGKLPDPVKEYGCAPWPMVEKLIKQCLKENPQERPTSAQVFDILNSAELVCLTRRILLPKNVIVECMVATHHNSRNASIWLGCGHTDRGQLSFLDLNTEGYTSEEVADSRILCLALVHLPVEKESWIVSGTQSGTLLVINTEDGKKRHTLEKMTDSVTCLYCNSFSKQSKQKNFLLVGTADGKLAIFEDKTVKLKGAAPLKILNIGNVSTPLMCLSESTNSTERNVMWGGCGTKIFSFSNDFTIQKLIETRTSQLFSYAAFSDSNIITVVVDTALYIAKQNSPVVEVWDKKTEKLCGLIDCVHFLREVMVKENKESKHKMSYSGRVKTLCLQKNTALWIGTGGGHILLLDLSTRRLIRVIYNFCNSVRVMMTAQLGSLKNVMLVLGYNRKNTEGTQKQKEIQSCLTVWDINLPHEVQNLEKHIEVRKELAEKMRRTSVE

Row | LRRK2 pIC50 | SMILES
1 | 10.0 | O=C(Nc1cc2cc(C3CCN([C@@H]4COC[C@@H]4O)CC3)c(Cl)cc2cn1)C1CC12CCOC2 (single isomer, unassigned) [Ex-8.1, N-(7-chloro-6-(1-((3R,4R or 3S,4S)-4-hydroxytetrahydrofuran-3-yl)piperidin-4-yl)isoquinolin-3-yl)-5-oxaspiro[2.4]heptane-1-carboxamide]

Same assay, conditions: read-out: LRRK2 pIC50 (converted)

Row | SMILES | IC50
2 | Cn1cc(C2CC2C(=O)Nc2cc3cc(C4CCN(C5(C)COCC5O)CC4)c(Cl)cc3cn2)cn1 (stereo not shown) [Ex-2.36] | 0.55 nM
3 | CC1(C)C(C(=O)Nc2cc3cc(C4CCN(C5(C)COCC5O)CC4)c(Cl)cc3cn2)C1c1ccccn1 (single isomer, unassigned) [Ex-4.46, N-(7-chloro-6-(1-(4-hydroxy-3-methyltetrahydrofuran-3-yl)piperidin-4-yl)isoquinolin-3-yl)-2,2-dimethyl-3-(pyridin-2-yl)cyclopropane-1-carboxamide] | 3.55 nM
4 | N#CC1(c2ccc3cnc(NC(=O)C4CC4c4ccncc4)cc3c2)CC12CC2 (stereo not shown) [Ex-2.42] | 2.34 nM
5 | Cn1cc(C2CC2C(=O)Nc2cc3cc(C4CCC(N5CC(F)C5)CC4)c(Cl)cc3cn2)cn1 (single isomer, unassigned) [Ex-5.8, N-(7-cchloro-6-(4-(3-fluoroazetidin-1-yl)cyclohexyl)isoquinolin-3-yl)-2-(1-methyl-1H-pyrazol-4-yl)cyclopropane-1-carboxamide] | 8.71 nM
6 | CC1(N2CCC(c3cc4cc(NC(=O)C5CC5c5ccco5)ncc4cc3Cl)CC2)COCC1O (single isomer, unassigned) [Ex-4.65, N-(7-chloro-6-(1-(4-hydroxy-3-methyltetrahydrofuran-3-yl)piperidin-4-yl)isoquinolin-3-yl)-2-(furan-2-yl)cyclopropane-1-carboxamide] | 0.708 nM
7 | CC1(C)C(C(=O)Nc2cc3cc(C4CCN(C5(C)COCC5O)CC4)c(Cl)cc3cn2)C1c1ccccn1 (single isomer, unassigned) [Ex-4.45, N-(7-chloro-6-(1-(4-hydroxy-3-methyltetrahydrofuran-3-yl)piperidin-4-yl)isoquinolin-3-yl)-2,2-dimethyl-3-(pyridin-2-yl)cyclopropane-1-carboxamide] | 7.08 nM
8 | CC(C(=O)Nc1cc2cc(C3CCN(C4(C)CCOC4O)CC3)c(Cl)cc2cn1)C1CCOCC1 (stereo not shown) [Ex-2.104] | 0.661 nM

Continued, values first:

Row | IC50 | SMILES
9 | 0.0813 nM | CCC1C(C(=O)Nc2cc3cc(C4CCC(N5CC(C)(F)C5)CC4)c(Cl)cc3cn2)C1c1cnn(C)c1 (single isomer, unassigned) [Ex-11.1, (1R,2R,3R) or (1R,2S,3R) or (1S,2R,3S) or (1S,2S,3S)-N-(7-chloro-6-((cis or trans)-4-(3-fluoro-3-methylazetidin-1-yl)cyclohexyl)isoquinolin-3-yl)-2-ethyl-3-(1-methyl-1H-pyrazol-4-yl)cyclopropane-1-carboxamide]
10 | 11 nM | COCC(C)c1cc2cc(NC(=O)C3CC3c3ccccn3)ncc2cc1Cl (single isomer, unassigned) [Ex-9.19, N-(7-chloro-6-(1-methoxypropan-2-yl)isoquinolin-3-yl)-2-(pyridin-2-yl)cyclopropane-1-carboxamide]
11 | 87.1 nM | CC1(N2CCC(c3cc4cc(NC(=O)C5CC5c5ccccn5)ncc4cc3Cl)CC2)CCOC1 (single isomer, unassigned) [Ex-6.33, N-(7-chloro-6-(1-(3-methyltetrahydrofuran-3-yl)piperidin-4-yl)isoquinolin-3-yl)-2-(pyridin-2-yl)cyclopropane-1-carboxamide]
12 | 219 nM | Cc1cc2cnc(NC(=O)C3CC34CCOC4)cc2cc1C1CCN(C2(C)COCC2F)CC1 (single isomer, unassigned) [Ex-15.8, N-(6-(1-(4-fluoro-3-methyltetrahydrofuran-3-yl)piperidin-4-yl)-7-methylisoquinolin-3-yl)-5-oxaspiro[2.4]heptane-1-carboxamide]
13 | 1.1 nM | CC1CC1C(=O)Nc1cc2cc(C3CCN(C4COC4)CC3)c(Cl)cc2cn1 (single isomer, unassigned) [Ex-9.5, N-(7-chloro-6-(1-(oxetan-3-yl)piperidin-4-yl)isoquinolin-3-yl)-2-methylcyclopropane-1-carboxamide]
